Results: patent publication US20040121946A9, “Inducing cellular immune responses to her2/neu using peptide and nucleic acid compositions” (priority 2002, published 2004)
Where two headings read alike, the source gives them in different places. Where a SMILES comes first, the peptide text is derived from it. Where no end group is shown, it is not given here.

Tests used:
DRB1*0101 (DR1) = DRB1*0101 (DR1) (Homo sapiens, UniProt P01903+P01911, A100R/D57E/F55L/F60I/F76Y/I96L/L162R/M171V/P40L/Q125E/R42F/V115G/Y59C); test: HLA class II peptide binding assay, purified HLA; details: Table XIX, DR supermotif peptides; unit not given
DRB1*0401 (DR4w4) = DRB1*0401 (DR4w4) (Homo sapiens, UniProt P01903+P01911, A100K/A169T/F76Y/I96L/K127E/L162R/M171V/N62H/P40V/Q125Y/R42H/S133A/S149N/S66Y/V115G/V209L/W38E); test: HLA class II peptide binding assay, purified HLA; details: Table XIX, DR supermotif peptides; unit not given
DRB1*0701 (DR7) = DRB1*0701 (DR7) (Homo sapiens, UniProt P01903+P01911, A100R/A102G/A103Q/D57E/D86V/E43K/F76Y/K127E/L162R/M171V/P40G/Q125H/Q99D/R33Q/R42Y/R54Q/S133A/S66F/T210M/V115G/Y107V/Y59L/Y89S); test: HLA class II peptide binding assay, purified HLA; details: Table XIX, DR supermotif peptides; unit not given
[1] = tested on: HLA-DR molecules (DR1, DR4w4, DR7, DRB5*0101, DRB1*1501, DRB1*1101, DRB1*0802, DRB1*1302); test: DR supertype cross-reactive binding; parameters: species or system human; details: number of DR1, DR4w4, DR7 bound, Table XXVIII
[2] = tested on: B7-supertype molecules (B*0702, B*3501, B*5101, B*5301, B*5401); test: B7-supertype cross-reactive binding; parameters: species or system human; details: of five B7-supertype alleles tested
HLA-B*0702 = HLA-B*0702 (Homo sapiens, UniProt P01889); assay type: binding
[3] = Table XXIV, B7 supermotif peptides

Molecule | No. of B7 Alleles Crossbound [2] | IC50 (HLA-B*0702; [3]) [nM] | also measured
LTSHSAVVGILLVV | – | – | DR1 binding data (DRB1*0101 (DR1)): 0.1900; DR4w4 binding data (DRB1*0401 (DR4w4)): −0.0025; DR7 binding data (DRB1*0701 (DR7)): 0.0049
IKVLRENTSPKANKE | – | – | DR1 binding data (DRB1*0101 (DR1)): −0.0005; DR4w4 binding data (DRB1*0401 (DR4w4)): −0.0032; DR7 binding data (DRB1*0701 (DR7)): −0.0011; DR147 Cross-binding [1]: 0
QPDVRPQPPSPREGP | – | – | DR1 binding data (DRB1*0101 (DR1)): 0.0007; DR4w4 binding data (DRB1*0401 (DR4w4)): −0.0032; DR7 binding data (DRB1*0701 (DR7)): −0.0011; DR147 Cross-binding [1]: 0
CSCC[C@H](NC(=O)[C@H](CC(C)C)NC(=O)[C@H](CCC(=O)O)NC(=O)[C@H](Cc1c[nH]c2ccccc12)NC(=O)[C@@H](NC(=O)[C@@H](NC(=O)[C@@H](NC(=O)CN)C(C)C)[C@@H](C)O)C(C)C)C(=O)N[C@H](C(=O)N[C@@H](Cc1ccccc1)C(=O)NCC(=O)N[C@@H](C)C(=O)N[C@@H](CCCCN)C(=O)N1CCC[C@H]1C(=O)N[C@@H](Cc1ccc(O)cc1)C(=O)O)[C@@H](C)O | – | – | DR4w4 binding data (DRB1*0401 (DR4w4)): 0.0330; DR7 binding data (DRB1*0701 (DR7)): 0.0170; DR147 Cross-binding [1]: 1
CC[C@H](C)[C@H](NC(=O)[C@@H]1CCCN1C(=O)[C@H](CCSC)NC(=O)[C@H](Cc1ccc(O)cc1)NC(=O)[C@H](CO)NC(=O)[C@H](CC(C)C)NC(=O)[C@H](CC(=O)O)NC(=O)[C@@H]1CCCN1C(=O)[C@@H](N)CCCCN)C(=O)N[C@@H](Cc1c[nH]c2ccccc12)C(=O)N[C@@H](CCCCN)C(=O)N[C@@H](Cc1ccccc1)C(=O)N1CCC[C@H]1C(=O)N[C@@H](CC(=O)O)C(=O)N[C@@H](CCC(=O)O)C(=O)O | – | – | DR4w4 binding data (DRB1*0401 (DR4w4)): −0.0025; DR147 Cross-binding [1]: 1
CC[C@H](C)[C@H](NC(=O)[C@H](CC(=O)O)NC(=O)[C@@H]1CCCN1C(=O)[C@H](CC(C)C)NC(=O)[C@H](CO)NC(=O)[C@H](CC(=O)O)NC(=O)[C@@H]1CCCN1C(=O)[C@@H](N)Cc1c[nH]c2ccccc12)C(=O)O [Her2/neu.415.I8] | 1 | – | IC50 (HLA-B*0702): 71 nM
CC[C@H](C)[C@H](NC(=O)[C@@H](NC(=O)[C@H](CCCNC(=N)N)NC(=O)[C@H](CCSC)NC(=O)[C@H](CCC(N)=O)NC(=O)[C@H](C)NC(=O)[C@H](CCC(N)=O)NC(=O)[C@H](CC(N)=O)NC(=O)[C@@H]1CCCN1C(=O)[C@@H](N)Cc1ccccc1)[C@@H](C)CC)C(=O)O [Her2/neu.706.F1I10] | 4 | 290 | –
CC[C@H](C)[C@H](NC(=O)[C@H](CO)NC(=O)[C@H](CC(C)C)NC(=O)[C@H](CC(=O)O)NC(=O)[C@@H]1CCCN1C(=O)[C@H](CCCCN)NC(=O)[C@@H](NC(=O)CNC(=O)[C@H](CO)NC(=O)[C@@H]1CCCN1C(=O)[C@@H](N)CS)C(C)C)C(=O)O [Her2/neu.600.I11] | 3 | 290 | –
CC[C@H](C)[C@H](NC(=O)[C@H](C)NC(=O)[C@H](CO)NC(=O)[C@@H](NC(=O)[C@@H](NC(=O)[C@H](CO)NC(=O)[C@@H](NC(=O)[C@H](CC(C)C)NC(=O)[C@@H]1CCCN1C(=O)[C@@H](N)Cc1ccccc1)[C@@H](C)O)[C@@H](C)CC)[C@@H](C)CC)C(=O)O [Her2/neu.649.F1I10] | 5 | 229 | –
FPSGAMPNQI [Her2/neu.701.F1] | 3 | 229 | –
CC[C@H](C)[C@H](NC(=O)[C@@H](NC(=O)[C@@H](NC(=O)[C@H](CCC(=O)O)NC(=O)[C@H](CCC(N)=O)NC(=O)[C@H](CC(N)=O)NC(=O)[C@H](Cc1c[nH]cn1)NC(=O)[C@H](CC(C)C)NC(=O)[C@@H]1CCCN1C(=O)[C@@H](N)CS)C(C)C)[C@@H](C)O)C(=O)O [Her2/neu.315.I10] | 3 | 458 | –

Now from value to molecule, other results behind:

No. of B7 Alleles Crossbound [2] | IC50 (HLA-B*0702; [3]) [nM] | Molecule | also measured
3 | 86 | CC[C@H](C)[C@H](NC(=O)[C@H](CO)NC(=O)[C@@H](NC(=O)[C@@H](NC(=O)[C@H](CO)NC(=O)[C@@H](NC(=O)[C@H](CC(C)C)NC(=O)[C@@H]1CCCN1C(=O)[C@@H](N)CO)[C@@H](C)O)[C@@H](C)CC)[C@@H](C)CC)C(=O)O [Her2/neu.649.I9] | –
4 | 3.9 | CC(C)C[C@H](NC(=O)[C@@H](NC(=O)[C@H](C)NC(=O)CNC(=O)[C@H](C)NC(=O)[C@@H]1CCCN1C(=O)[C@H](CCCNC(=N)N)NC(=O)[C@H](C)NC(=O)[C@H](C)NC(=O)[C@@H]1CCCN1C(=O)[C@@H](N)Cc1ccccc1)[C@@H](C)O)C(=O)O [Her2/neu.1157.F1] | –
5 | 34 | CC[C@H](C)[C@H](NC(=O)[C@@H](NC(=O)[C@H](Cc1ccc(O)cc1)NC(=O)[C@H](CCCNC(=N)N)NC(=O)CNC(=O)[C@H](CCC(=O)O)NC(=O)[C@@H]1CCCN1C(=O)[C@H](CC(N)=O)NC(=O)[C@@H]1CCCN1C(=O)[C@@H](N)CCSC)[C@@H](C)O)C(=O)O [Her2/neu.282.I10] | –
5 | 66 | MPYGCLLDHVI [Her2/neu.801.I11] | –
3 | 10 | CC(C)C[C@H](NC(=O)[C@@H]1CCCN1C(=O)[C@H](CO)NC(=O)[C@@H]1CCCN1C(=O)[C@H](CC(=O)O)NC(=O)[C@H](Cc1c[nH]cn1)NC(=O)[C@@H](NC(=O)[C@@H]1CCCN1C(=O)[C@@H](N)Cc1ccccc1)[C@@H](C)O)C(=O)O [Her2/neu.1101.F1] | –
3 | 229 | CC[C@H](C)[C@H](NC(=O)[C@H](CO)NC(=O)[C@H](CCCNC(=N)N)NC(=O)[C@H](Cc1ccc(O)cc1)NC(=O)[C@H](Cc1ccccc1)NC(=O)[C@@H](NC(=O)[C@H](CO)NC(=O)[C@H](CC(=O)O)NC(=O)[C@H](CC(C)C)NC(=O)[C@@H]1CCCN1C(=O)[C@@H](N)Cc1ccccc1)[C@@H](C)O)C(=O)O [Her2/neu.998.F1I11] | –
1 | 149 | CC(C)C[C@H](NC(=O)CNC(=O)[C@H](Cc1ccc(O)cc1)NC(=O)[C@H](CS)NC(=O)[C@@H](NC(=O)[C@H](CCCNC(=N)N)NC(=O)[C@H](C)NC(=O)[C@H](CS)NC(=O)[C@@H]1CCCN1C(=O)[C@@H](N)CCCCN)C(C)C)C(=O)O [Her2/neu.336] (H-KPCARVCYGL-OH) | –
3 | 34 | CC(C)C[C@H](NC(=O)[C@@H]1CCCN1C(=O)[C@@H](N)Cc1ccccc1)C(=O)N1CCC[C@H]1C(=O)N[C@@H](C)C(=O)N[C@@H](C)C(=O)N[C@@H](CCCNC(=N)N)C(=O)N1CCC[C@H]1C(=O)N[C@@H](C)C(=O)O [Her2/neu.1155.F1] | –
1 | 76 | CC[C@H](C)[C@H](NC(=O)[C@@H]1CCCN1C(=O)[C@H](CCSC)NC(=O)[C@H](Cc1ccc(O)cc1)NC(=O)[C@H](CO)NC(=O)[C@H](CC(C)C)NC(=O)[C@H](CC(=O)O)NC(=O)[C@@H]1CCCN1C(=O)[C@@H](N)CCCCN)C(=O)O [Her2/neu.605] | –
1 | 61 | CC[C@H](C)[C@H](NC(=O)[C@H](CO)NC(=O)[C@@H](NC(=O)[C@H](CC(C)C)NC(=O)[C@@H]1CCCN1C(=O)[C@@H](N)CO)[C@@H](C)O)C(=O)N[C@H](C(=O)N[C@@H](CO)C(=O)N[C@@H](C)C(=O)N[C@H](C(=O)O)C(C)C)[C@@H](C)CC [Her2/neu.649] | –
5 | 20 | CC[C@H](C)[C@H](NC(=O)[C@@H](NC(=O)[C@H](CO)NC(=O)[C@H](CC(=O)O)NC(=O)[C@H](CC(C)C)NC(=O)[C@@H]1CCCN1C(=O)[C@H](CO)NC(=O)[C@H](C)NC(=O)[C@@H]1CCCN1C(=O)[C@@H](N)Cc1ccccc1)[C@@H](C)O)C(=O)O [Her2/neu.995.F1I10] | –
3 | 8.5 | FPKANKEII [Her2/neu.760.F1I9] | –
